Laboratory results reported in PubChem BioAssay (NCI).
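Cultured in 96-well plates, cells were exposed to test compound for 48 hours across five concentrations. GI50 marks 50% less growth. TGI marks complete inhibition of growth.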

Key:
Experiment in all cases: NCI-60 cell line screen, 48 h
NCI-H460 lung = system: NCI-H460 lung
NCI-H226 lung = system: NCI-H226 lung
SW-620 colon = system: SW-620 colon
SNB-75 CNS = system: SNB-75 CNS
COLO 205 colon = system: COLO 205 colon
A498 renal = system: A498 renal
HCT-15 colon = system: HCT-15 colon
EKVX NSCLC = system: EKVX NSCLC
HOP-62 NSCLC = system: HOP-62 NSCLC
OVCAR-4 ovarian = system: OVCAR-4 ovarian

COc1cccc(C2C(C#N)=C(N)Oc3cc4c(cc32)OCO4)c1 (stereo not given)
GI50 (NCI-H460 lung): 0.0438 µM | TGI (NCI-H460 lung): 12.2 µM | GI50 (NCI-H226 lung): 0.0455 µM | TGI (NCI-H226 lung): 2.43 µM | GI50 (SW-620 colon): 0.0369 µM | TGI (SW-620 colon): > 63.2 µM | GI50 (SNB-75 CNS): 0.0275 µM | TGI (SNB-75 CNS): 46.5 µM | GI50 (COLO 205 colon): 0.0492 µM | TGI (COLO 205 colon): 0.325 µM | GI50 (A498 renal): 0.0311 µM | TGI (A498 renal): 3 µM | GI50 (HCT-15 colon): 0.0525 µM | TGI (HCT-15 colon): > 43.5 µM | GI50 (EKVX NSCLC): 0.28 µM | TGI (EKVX NSCLC): 58.8 µM | GI50 (HOP-62 NSCLC): 0.0501 µM | TGI (HOP-62 NSCLC): 27.2 µM | GI50 (OVCAR-4 ovarian): 0.457 µM | TGI (OVCAR-4 ovarian): > 100 µM

COc1c(O)c2c3c(c1OC)-c1ccccc1CC3N(S(=O)(=O)c1ccc(C)cc1)CC2 (stereo not given)
GI50 (NCI-H460 lung): 1.58 µM | TGI (NCI-H460 lung): > 50 µM | GI50 (NCI-H226 lung): 11.4 µM | TGI (NCI-H226 lung): > 50 µM | GI50 (SW-620 colon): 1.6 µM | TGI (SW-620 colon): > 50 µM | GI50 (SNB-75 CNS): 0.933 µM | TGI (SNB-75 CNS): 3.92 µM | GI50 (COLO 205 colon): 19.2 µM | TGI (COLO 205 colon): > 50 µM | GI50 (A498 renal): 0.372 µM | TGI (A498 renal): 5.54 µM | GI50 (HCT-15 colon): 2.05 µM | TGI (HCT-15 colon): > 50 µM | GI50 (EKVX NSCLC): 4.04 µM | TGI (EKVX NSCLC): > 50 µM | GI50 (HOP-62 NSCLC): 2.77 µM | TGI (HOP-62 NSCLC): > 50 µM | GI50 (OVCAR-4 ovarian): 3.7 µM | TGI (OVCAR-4 ovarian): > 50 µM

COc1ccc(/C=C\c2cc(OC)c(OC)c(OC)c2)c(NS(=O)(=O)c2ccc(C(C)(C)C)cc2)c1O
GI50 (NCI-H460 lung): 0.375 µM | TGI (NCI-H460 lung): 11 µM | GI50 (NCI-H226 lung): 0.546 µM | TGI (NCI-H226 lung): 13.5 µM | GI50 (SW-620 colon): 0.329 µM | TGI (SW-620 colon): 23.5 µM | GI50 (SNB-75 CNS): 0.231 µM | TGI (SNB-75 CNS): 14.1 µM | GI50 (COLO 205 colon): 3.32 µM | TGI (COLO 205 colon): 12.5 µM | GI50 (A498 renal): 0.0241 µM | TGI (A498 renal): 0.169 µM | GI50 (HCT-15 colon): 0.234 µM | TGI (HCT-15 colon): 16.2 µM | GI50 (EKVX NSCLC): 0.706 µM | TGI (EKVX NSCLC): 26.3 µM | GI50 (HOP-62 NSCLC): 10.1 µM | TGI (HOP-62 NSCLC): 70.3 µM | GI50 (OVCAR-4 ovarian): 0.188 µM | TGI (OVCAR-4 ovarian): 32 µM

CCCCCCCCCCCCOC1C(C(CC(=O)N2CCN(Cc3ccc4c(c3)OCO4)CC2)NS(=O)(=O)c2cc(Cl)cc(Cl)c2)OC2OC(C)(C)OC21 (stereo not given)
GI50 (NCI-H460 lung): 5.44 µM | TGI (NCI-H460 lung): 35 µM | GI50 (NCI-H226 lung): 43.5 µM | TGI (NCI-H226 lung): > 100 µM | GI50 (SW-620 colon): 16.4 µM | TGI (SW-620 colon): > 100 µM | GI50 (SNB-75 CNS): > 45 µM | TGI (SNB-75 CNS): > 100 µM | GI50 (COLO 205 colon): 11.7 µM | TGI (COLO 205 colon): > 78.3 µM | GI50 (A498 renal): 43.4 µM | TGI (A498 renal): > 100 µM | GI50 (HCT-15 colon): > 100 µM | TGI (HCT-15 colon): > 100 µM | GI50 (EKVX NSCLC): 19.1 µM | TGI (EKVX NSCLC): > 100 µM | GI50 (HOP-62 NSCLC): 86.5 µM | TGI (HOP-62 NSCLC): > 100 µM | GI50 (OVCAR-4 ovarian): 18.1 µM | TGI (OVCAR-4 ovarian): > 100 µM

[Cl-].[Gd+3].[O-]/N=C(\c1ccccc1)c1ccccn1.[O-]/N=C(\c1ccccc1)c1ccccn1.[O-]/N=C(\c1ccccc1)c1ccccn1
GI50 (NCI-H460 lung): 50.7 µM | TGI (NCI-H460 lung): > 100 µM | GI50 (NCI-H226 lung): 40.4 µM | TGI (NCI-H226 lung): > 100 µM | GI50 (SW-620 colon): 41.7 µM | TGI (SW-620 colon): > 100 µM | GI50 (SNB-75 CNS): 17.5 µM | TGI (SNB-75 CNS): 71.9 µM | GI50 (COLO 205 colon): 47.2 µM | TGI (COLO 205 colon): > 100 µM | GI50 (A498 renal): > 100 µM | TGI (A498 renal): > 100 µM | GI50 (HCT-15 colon): 48.4 µM | TGI (HCT-15 colon): > 100 µM | GI50 (EKVX NSCLC): 42.7 µM | TGI (EKVX NSCLC): > 100 µM | GI50 (HOP-62 NSCLC): 41.8 µM | TGI (HOP-62 NSCLC): > 100 µM | GI50 (OVCAR-4 ovarian): 43.7 µM | TGI (OVCAR-4 ovarian): > 100 µM

O=C(/C=C(\[O-])c1ccccc1)CCCCCCC(=O)/C=C(\[O-])c1ccccc1.O=C(/C=C(\[O-])c1ccccc1)CCCCCCC(=O)/C=C(\[O-])c1ccccc1.O=C(/C=C(\[O-])c1ccccc1)CCCCCCC(=O)/C=C(\[O-])c1ccccc1.[Nd+3].[Nd+3]
GI50 (NCI-H460 lung): > 50 µM | TGI (NCI-H460 lung): > 50 µM | GI50 (NCI-H226 lung): > 50 µM | TGI (NCI-H226 lung): > 50 µM | GI50 (SW-620 colon): > 50 µM | TGI (SW-620 colon): > 50 µM | GI50 (SNB-75 CNS): 3.3 µM | TGI (SNB-75 CNS): > 50 µM | GI50 (COLO 205 colon): > 50 µM | TGI (COLO 205 colon): > 50 µM | GI50 (A498 renal): > 50 µM | TGI (A498 renal): > 50 µM | GI50 (HCT-15 colon): > 50 µM | TGI (HCT-15 colon): > 50 µM | GI50 (EKVX NSCLC): > 50 µM | TGI (EKVX NSCLC): > 50 µM | GI50 (HOP-62 NSCLC): > 50 µM | TGI (HOP-62 NSCLC): > 50 µM | GI50 (OVCAR-4 ovarian): > 50 µM | TGI (OVCAR-4 ovarian): > 50 µM
